Read-outs that look alike come from different tables or passages of the source. *1 amine or outer side, *2 acyl side, *3 side chain or, on linkers, in order; H or OH if unused. Where a SMILES comes first, the peptide text is derived from it. Side-chain parts run from the residue outwards. [ ]: non-standard residue; d: D form. The star is where a group is joined. C18 diacid = O=C(O)CCCCCCCCCCCCCCCCC(=O)*; γGlu = O=C(O)[C@H](CCC(=O)[*:2])N[*:1]; εLys = N[C@@H](CCCCN[*:1])C(=O)[*:2]; AEEA = NCCOCCOCC(=O)O; Aib = CC(C)(N)C(=O)O
Key:
human GLP-1 receptor = molecular target: T1, human GLP-1 receptor (Homo sapiens, UniProt P43220); experiment: In vitro functional potency (CRE luciferase; whole cells), human GLP-1R; format: cell-based; conditions: BHK CRE luc2P hGLP-1R whole cells; for EC50: read-out: hGLP-1R CRE Luc EC50
T1 construct: expressed in transfected cells; host or cells: BHK cells (parent line BHKTS13) containing CRE luciferase

human GIP receptor = molecular target: T2, human GIP receptor (Homo sapiens, UniProt P48546); experiment: In vitro functional potency (CRE luciferase; whole cells), human GIPR; format: cell-based; conditions: BHK CRE luc2P hGIPR whole cells, Table 1, position of substituent varied; for EC50: read-out: hGIPR CRE Luc EC50
T2 construct: expressed in transfected cells; host or cells: BHK cells (parent line BHKTS13) containing CRE luciferase
T2 sequence (P48546 22-466): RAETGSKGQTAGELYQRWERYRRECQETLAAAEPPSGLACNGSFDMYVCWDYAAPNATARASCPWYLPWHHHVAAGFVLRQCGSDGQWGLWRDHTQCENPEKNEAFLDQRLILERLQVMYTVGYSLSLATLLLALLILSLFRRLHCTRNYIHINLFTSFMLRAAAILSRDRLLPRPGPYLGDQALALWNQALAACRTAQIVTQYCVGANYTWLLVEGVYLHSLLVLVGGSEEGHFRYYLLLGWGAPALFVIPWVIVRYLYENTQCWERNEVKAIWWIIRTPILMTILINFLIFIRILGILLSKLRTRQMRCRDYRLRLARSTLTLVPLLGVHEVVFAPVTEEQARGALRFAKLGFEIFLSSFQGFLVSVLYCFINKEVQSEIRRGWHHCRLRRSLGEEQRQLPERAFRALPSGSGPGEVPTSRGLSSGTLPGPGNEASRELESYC

human Gcg receptor = molecular target: T3, human Gcg receptor (Homo sapiens, UniProt P47871); experiment: In vitro functional potency (CRE luciferase; whole cells), human GcgR; format: cell-based; conditions: BHK CRE luc2P hGcgR whole cells; for EC50: read-out: hGcgR CRE Luc EC50
T3 construct: expressed in transfected cells; host or cells: BHK cells (parent line BHKTS13) containing CRE luciferase
Protocol: The purpose of this example is to test the functional activity, or potency, of the compounds in vitro at the human and mouse GLP-1, GIP, and Gcg receptors. The in vitro functional potency is the measure of target receptor activation in a whole cell assay.
In vitro functional potency was determined by measuring the response of the target receptor in a reporter gene assay in individual cell lines. The assay was performed in stably transfected BHK cell lines that expresses one of the following G-protein coupled receptors: human GLP-1 receptor, human GIP receptor, human Gcg receptor, mouse GLP-1 receptor, mouse GIP receptor, or mouse Gcg receptor; and where each cell line contains the DNA for the cAMP response element (CRE) coupled to a promoter and the gene for firefly luciferase (CRE luciferase). When the respective receptor is activated, it results in the production of cAMP, which in turn results in expression of the luciferase protein. When assay incubation is completed, luciferase substrate (luciferin) is added resulting in the enzymatic conversion of luciferin to oxyluciferin and producing bioluminescence. The luminescence is measured as the readout for the assay.
The cells lines used in these assays were BHK cells with BHKTS13 as a parent cell line. The cell lines were derived from a clone containing the CRE luciferase element and were established by further transfection with the respective receptor to obtain the relevant cell line.
The cells were cultured at 37° C. with 5% CO2 in Cell Culture Medium. They were aliquoted and stored in liquid nitrogen. The cells were kept in continuous culture and were seeded out the day before each assay.
GLP-1R and GcgR Cell Culture Medium consisted of DMEM medium with 10% FBS, 500 µg/mL G418, and 300 µg/mL hygromycin. GIPR Cell Culture Medium consisted of DMEM medium with 10% FBS, 400 µg/mL G418, and 300 µg/mL hygromycin. Assay Buffer consisted of DMEM w/o phenol red, 10 mM Hepes, 1× Glutamax, 1% ovalbumin, and 0.1% Pluronic F-68.
• 1) Cells were plated at 5000 cells/well and incubated overnight in the assay plate. • 2) Cells were washed once in DPBS. • 3) Stocks of the test compounds and reference compounds in concentrations ranging from 100-300 pM were diluted 1:150 in Assay Buffer.
The data from the microtiter plate reader was first regressed in an Excel in order to calculate the x-axis, log scale concentrations based on the individual test compound's stock concentration and the dilutions of the assay. […] The software performs a non-linear regression (log(agonist) vs response). A minimum of two replicates was measured for each sample. The reported values are averages of the replicates.

[1] = Pharmacokinetic study in minipigs, i.v. administration; set-up: species or system Göttingen minipigs; conditions: female, Göttingen, minipig, in vivo, iv
Procedure, shortened: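 Terminal half-life, reported as harmonic mean, came from non-compartmental fits of plasma levels measured by antibody assay or LCMS over up to 14 days. Dosing was i.v., typically 1.5-2 nmol/kg, through implanted caval catheters in fasted female Göttingen minipigs of 16-35 kg.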

[2] = Table 1, position of substituent varied

T3 sequence (P47871 26-477): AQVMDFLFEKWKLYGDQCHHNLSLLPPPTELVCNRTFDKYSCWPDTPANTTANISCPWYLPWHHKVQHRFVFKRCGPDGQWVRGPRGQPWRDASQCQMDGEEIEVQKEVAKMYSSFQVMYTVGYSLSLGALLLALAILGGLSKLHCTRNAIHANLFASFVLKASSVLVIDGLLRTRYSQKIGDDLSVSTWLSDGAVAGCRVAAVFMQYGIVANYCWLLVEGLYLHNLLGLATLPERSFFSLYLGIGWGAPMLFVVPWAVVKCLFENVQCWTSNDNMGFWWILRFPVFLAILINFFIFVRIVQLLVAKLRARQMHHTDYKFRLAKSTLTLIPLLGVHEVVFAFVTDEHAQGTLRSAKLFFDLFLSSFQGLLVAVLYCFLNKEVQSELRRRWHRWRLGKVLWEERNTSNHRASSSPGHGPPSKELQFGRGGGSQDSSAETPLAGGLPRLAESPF
T1 sequence (P43220 24-463): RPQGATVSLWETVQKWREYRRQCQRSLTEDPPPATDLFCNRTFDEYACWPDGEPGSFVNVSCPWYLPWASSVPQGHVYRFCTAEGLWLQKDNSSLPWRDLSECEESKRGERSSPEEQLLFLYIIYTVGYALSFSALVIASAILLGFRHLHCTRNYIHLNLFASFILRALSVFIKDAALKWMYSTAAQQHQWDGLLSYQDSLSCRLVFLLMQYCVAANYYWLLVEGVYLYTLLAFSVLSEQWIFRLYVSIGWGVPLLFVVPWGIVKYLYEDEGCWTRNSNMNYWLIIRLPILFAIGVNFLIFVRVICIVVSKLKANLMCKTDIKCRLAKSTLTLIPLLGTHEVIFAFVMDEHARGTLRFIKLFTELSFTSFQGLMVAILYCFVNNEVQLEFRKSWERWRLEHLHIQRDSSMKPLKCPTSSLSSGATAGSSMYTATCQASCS

Row | Compound | EC50 (human GLP-1 receptor; [2]) [pM] | EC50 (human GIP receptor) [pM] | EC50 (human Gcg receptor; [2]) [pM] | half-life [1] [h] | EC50 (human Gcg receptor; Table 2) [pM] | other results
1 | CC[C@H](C)[C@H](NC(=O)[C@H](CO)NC(=O)[C@H](Cc1ccc(O)cc1)NC(=O)[C@H](CC(=O)O)NC(=O)[C@H](CO)NC(=O)[C@@H](NC(=O)[C@H](Cc1ccccc1)NC(=O)[C@@H](NC(=O)CNC(=O)[C@H](CCC(N)=O)NC(=O)C(C)(C)NC(=O)[C@@H](N)Cc1ccc(O)cc1)[C@@H](C)O)[C@@H](C)O)C(=O)N[C@@H](Cc1ccc(O)cc1)C(=O)N[C@@H](CC(C)C)C(=O)N[C@@H](CC(=O)O)C(=O)N[C@@H](CCCCNC(=O)COCCOCCNC(=O)COCCOCCNC(=O)CC[C@H](NC(=O)CCCCCCCCCCCCCCCCC(=O)O)C(=O)O)C(=O)N[C@@H](CCC(N)=O)C(=O)N[C@@H](C)C(=O)N[C@@H](C)C(=O)NC(C)(C)C(=O)N[C@@H](CCC(=O)O)C(=O)N[C@@H](Cc1ccccc1)C(=O)N[C@H](C(=O)N[C@@H](CC(N)=O)C(=O)N[C@@H](Cc1c[nH]c2ccccc12)C(=O)N[C@@H](CC(C)C)C(=O)N[C@@H](CC(C)C)C(=O)N[C@@H](C)C(=O)NCC(=O)NCC(=O)N1CCC[C@H]1C(=O)N[C@@H](CO)C(=O)N[C@@H](CO)C(=O)NCC(=O)N[C@@H](C)C(=O)N1CCC[C@H]1C(=O)N1CCC[C@H]1C(=O)N1CCC[C@H]1C(=O)N[C@@H](CO)C(N)=O)C(C)C [Compound No. 1] (H-Y[Aib]QGTFTSDYSIYLDK([AEEA-AEEA-γGlu-C18 diacid])QAA[Aib]EFVNWLLAGGPSSGAPPPS-NH2; N-terminus assumed) | 8.6 | 23.7 | 157 | 61 |  | 
2 | CC[C@H](C)[C@H](NC(=O)[C@H](CO)NC(=O)[C@H](Cc1ccc(O)cc1)NC(=O)[C@H](CC(=O)O)NC(=O)[C@H](CO)NC(=O)[C@@H](NC(=O)[C@H](Cc1ccccc1)NC(=O)[C@@H](NC(=O)CNC(=O)[C@H](CCC(N)=O)NC(=O)C(C)(C)NC(=O)[C@@H](N)Cc1ccc(O)cc1)[C@@H](C)O)[C@@H](C)O)C(=O)N[C@@H](Cc1ccc(O)cc1)C(=O)N[C@@H](CC(C)C)C(=O)N[C@@H](CC(=O)O)C(=O)N[C@@H](CCCCN)C(=O)N[C@@H](CCCCNC(=O)COCCOCCNC(=O)COCCOCCNC(=O)CC[C@H](NC(=O)CCCCCCCCCCCCCCCCC(=O)O)C(=O)O)C(=O)N[C@@H](C)C(=O)N[C@@H](C)C(=O)NC(C)(C)C(=O)N[C@@H](CCC(=O)O)C(=O)N[C@@H](Cc1ccccc1)C(=O)N[C@H](C(=O)N[C@@H](CC(N)=O)C(=O)N[C@@H](Cc1c[nH]c2ccccc12)C(=O)N[C@@H](CC(C)C)C(=O)N[C@@H](CC(C)C)C(=O)N[C@@H](C)C(=O)NCC(=O)NCC(=O)N1CCC[C@H]1C(=O)N[C@@H](CO)C(=O)N[C@@H](CO)C(=O)NCC(=O)N[C@@H](C)C(=O)N1CCC[C@H]1C(=O)N1CCC[C@H]1C(=O)N1CCC[C@H]1C(=O)N[C@@H](CO)C(N)=O)C(C)C [Compound No. 2] (H-Y[Aib]QGTFTSDYSIYLDKK([AEEA-AEEA-γGlu-C18 diacid])AA[Aib]EFVNWLLAGGPSSGAPPPS-NH2; N-terminus assumed) | 7.1 | 49.8 | 47.6 | 45 |  | 
3 | CC[C@H](C)[C@H](NC(=O)[C@H](CO)NC(=O)[C@H](Cc1ccc(O)cc1)NC(=O)[C@H](CC(=O)O)NC(=O)[C@H](CO)NC(=O)[C@@H](NC(=O)[C@H](Cc1ccccc1)NC(=O)[C@@H](NC(=O)CNC(=O)[C@H](Cc1c[nH]cn1)NC(=O)C(C)(C)NC(=O)[C@@H](N)Cc1c[nH]cn1)[C@@H](C)O)[C@@H](C)O)C(=O)N[C@@H](Cc1ccc(O)cc1)C(=O)N[C@@H](CC(C)C)C(=O)N[C@@H](CCC(=O)O)C(=O)N[C@@H](CCCCNC(=O)[C@@H](N)CCCCNC(=O)[C@@H](N)CCCCNC(=O)CC[C@H](NC(=O)CCCCCCCCCCCCCCCCC(=O)O)C(=O)O)C(=O)N[C@@H](CCCCN)C(=O)N[C@@H](Cc1ccc(O)cc1)C(=O)N[C@@H](C)C(=O)NC(C)(C)C(=O)N[C@@H](CCC(=O)O)C(=O)N[C@@H](Cc1ccccc1)C(=O)N[C@H](C(=O)N[C@@H](CCC(N)=O)C(=O)N[C@@H](Cc1c[nH]c2ccccc12)C(=O)N[C@@H](CC(C)C)C(=O)N[C@@H](CC(C)C)C(=O)N[C@@H](CCC(=O)O)C(=O)NCC(=O)NCC(=O)N1CCC[C@H]1C(=O)N[C@@H](CO)C(=O)N[C@@H](CO)C(=O)NCC(=O)N[C@@H](C)C(=O)N1CCC[C@H]1C(=O)N1CCC[C@H]1C(=O)N1CCC[C@H]1C(=O)N[C@@H](CO)C(N)=O)C(C)C [Compound No. 38] (H-H[Aib]HGTFTSDYSIYLEK([εLys-εLys-γGlu-C18 diacid])KYA[Aib]EFVQWLLEGGPSSGAPPPS-NH2) |  |  |  |  | 6.4 | EC50 (human GLP-1 receptor; Table 2): 2.8 pM
4 | CC[C@H](C)[C@H](NC(=O)[C@H](CO)NC(=O)[C@H](Cc1ccc(O)cc1)NC(=O)[C@H](CC(=O)O)NC(=O)[C@H](CO)NC(=O)[C@@H](NC(=O)[C@H](Cc1ccccc1)NC(=O)[C@@H](NC(=O)CNC(=O)[C@H](Cc1c[nH]cn1)NC(=O)C(C)(C)NC(=O)[C@@H](N)Cc1c[nH]cn1)[C@@H](C)O)[C@@H](C)O)C(=O)N[C@@H](CC(C)C)C(=O)N[C@@H](CC(C)C)C(=O)N[C@@H](CCC(=O)O)C(=O)N[C@@H](CCCCNC(=O)[C@@H](N)CCCCNC(=O)[C@@H](N)CCCCNC(=O)CC[C@H](NC(=O)CCCCCCCCCCCCCCCCC(=O)O)C(=O)O)C(=O)N[C@@H](CCC(N)=O)C(=O)N[C@@H](C)C(=O)N[C@@H](C)C(=O)N[C@@H](Cc1c[nH]cn1)C(=O)N[C@@H](CCC(=O)O)C(=O)N[C@@H](Cc1ccccc1)C(=O)N[C@H](C(=O)N[C@@H](CCC(N)=O)C(=O)N[C@@H](Cc1c[nH]c2ccccc12)C(=O)N[C@@H](CC(C)C)C(=O)N[C@@H](CC(C)C)C(=O)N[C@@H](CCC(=O)O)C(=O)NCC(=O)NCC(=O)N1CCC[C@H]1C(=O)N[C@@H](CO)C(=O)N[C@@H](CO)C(=O)NCC(=O)N[C@@H](C)C(=O)N1CCC[C@H]1C(=O)N1CCC[C@H]1C(=O)N1CCC[C@H]1C(=O)N[C@@H](CO)C(=O)O)C(C)C [Compound No. 56] (H-H[Aib]HGTFTSDYSILLEK([εLys-εLys-γGlu-C18 diacid])QAAHEFVQWLLEGGPSSGAPPPS-OH) |  |  |  |  | 6.4 | 
5 | CC[C@H](C)[C@H](NC(=O)[C@H](CO)NC(=O)[C@H](Cc1ccc(O)cc1)NC(=O)[C@H](CC(=O)O)NC(=O)[C@H](CO)NC(=O)[C@@H](NC(=O)[C@H](Cc1ccccc1)NC(=O)[C@@H](NC(=O)CNC(=O)[C@H](CCC(N)=O)NC(=O)C(C)(C)NC(=O)[C@@H](N)Cc1ccc(O)cc1)[C@@H](C)O)[C@@H](C)O)C(=O)N[C@@H](Cc1ccc(O)cc1)C(=O)N[C@@H](CC(C)C)C(=O)N[C@@H](CC(=O)O)C(=O)N[C@@H](CCCCN)C(=O)N[C@@H](CCC(N)=O)C(=O)N[C@@H](C)C(=O)N[C@@H](C)C(=O)NC(C)(C)C(=O)N[C@@H](CCC(=O)O)C(=O)N[C@@H](Cc1ccccc1)C(=O)N[C@H](C(=O)N[C@@H](CC(N)=O)C(=O)N[C@@H](Cc1c[nH]c2ccccc12)C(=O)N[C@@H](CC(C)C)C(=O)N[C@@H](CC(C)C)C(=O)N[C@@H](C)C(=O)NCC(=O)NCC(=O)N1CCC[C@H]1C(=O)N[C@@H](CO)C(=O)N[C@@H](CO)C(=O)NCC(=O)N[C@@H](C)C(=O)N1CCC[C@H]1C(=O)N1CCC[C@H]1C(=O)N1CCC[C@H]1C(=O)N[C@@H](CO)C(=O)N[C@@H](CCCCNC(=O)COCCOCCNC(=O)COCCOCCNC(=O)CC[C@H](NC(=O)CCCCCCCCCCCCCCCCC(=O)O)C(=O)O)C(N)=O)C(C)C [Compound No. 59, reference compound] (H-Y[Aib]QGTFTSDYSIYLDKQAA[Aib]EFVNWLLAGGPSSGAPPPSK([AEEA-AEEA-γGlu-C18 diacid])-NH2; N-terminus assumed) |  |  |  |  |  | hGLP-1R CRE Luc EC50 (pM) (human GLP-1 receptor; [2]): lower potency; hGIPR CRE Luc EC50 (pM) (human GIP receptor): lower potency; hGcgR CRE Luc EC50 (pM) (human Gcg receptor; [2]): lower potency

From US20230391845A1, “GLP-1, GIP AND GLUCAGON RECEPTOR TRIPLE AGONISTS” (priority 2020, published 2023)
